Marks after values point to notes of the source that are not given here.
Test system: beef feedlot cattle
Experiment: 56-d study: carcass characteristics
Format: in vivo
Parameters: Marbling score, difference from control: scale not given here
Conditions: for YG 1, proportion of cattle graded / YG 2, proportion of cattle graded / YG 3, proportion of cattle graded / YG 4, proportion of cattle graded / YG 5, proportion of cattle graded: arithmetic mean; for Adjusted fat thickness / Dressing percentage / KPH fat / Ribeye Area / Yield grade / carcass weight (HCW) / Marbling score: 56 d treatment, steers, LS mean; for Marbling score: 400 Small, 500 Modest, 600 Moderate
Protocol: LUB was removed from feed at least 24 h before harvest to comply with the Food Use Authorization (FDA, 2016) granted by the FDA. Cattle were loaded for harvest shortly after collection of final pen live weights and transported to the slaughter facility at a stocking density of approximately 30 steers (i.e., half a pen of 60 steers) in one semi-trailer. The slaughter process was conducted in accordance with USDA requirements and standard slaughter site procedures. Animal/carcass identification was maintained by sequentially recording the ear tag numbers of cattle as they were slaughtered via a sequence number affixed to each carcass by trained personnel from the Beef Carcass Research Center (BCRC; West Texas A&M University, Canyon, TX) and correlating the individual ear tag number to the plant-assigned carcass ID number, which remained intact throughout the carcass data/sample collection phase. Following an industry-standard dressing procedure, each carcass was weighed for determination of HCW.
Carcass evaluation occurred following the commercial plant's standard chilling period. The carcass quality and yield grade factors, marbling score, ribeye area, and objective 12th rib fat thickness were captured objectively using the VBG2000 camera system. Additionally, adjusted 12th rib fat thickness, kidney, pelvic, and heart (KPH) fat assessment, and other defects (dark cutters, blood splash, etc.) were recorded by trained personnel (BCRC). Skeletal maturity was obtained only on carcasses that were “B” maturity or greater, otherwise, skeletal, lean, and overall maturity and lean color were not obtained.
Carcass defects (dark cutters, excessive trim) were noted by exception. The objective fat thickness was used to calculate the USDA yield grade. All carcasses were considered to be less than 30 mo of age; therefore, USDA quality grade was determined by using marbling score (USDA, 2019). The severity of the dark cutting condition was indicated by assigning the dark cutting carcasses to ⅓, ⅔, or full dark categories. Dark cutters were not excluded when determining quality grade, however, a summary of the frequency of dark cutter carcasses by treatment group is provided. Carcasses identified as excessively trimmed (greater than approximately 9.1 kg trim) were not excluded from the analysis, however, a summary of the frequency of excessively trimmed carcasses by treatment group is provided.
The label claim variable of cumulative NH3 gas emissions over the treatment period normalized by final BW (with d −59 BW as a covariate) for the period and HCW (g of gas kg^−1 of BW or g of gas kg^−1 HCW) was determined by utilizing NH3 gas emissions equations developed from the LUB clinical effectiveness study (FDA-FOI, 2018) and validated using animals of similar BW as described by Brown et al. (2019). The pen was the experimental unit for each outcome. Differences were deemed significant using a two-sided test at Ptrt≤0.05, however, a less stringent significance threshold of Ptrt≤0.10 was used for abnormal health observations. Fixed effect of treatment and random effects of time replicate and block within time replicate were included in the model. Discrete variables were analyzed using a generalized linear mixed model, Proc GLIMMIX SAS version 9.4 unless there were convergence problems due to sparseness of data. A binomial distribution was assumed and a logit link used in the analysis. Contrasts were constructed between the CON group and each non-CON dosage group, and differences were deemed significant at Pdose≤0.05. If convergence problems arose due to sparseness of data, Fisher's exact test (binomial data; Proc FREQ in SAS) or Wilcoxon's rank-sum test (categorical data; Proc NARIWAY in SAS) was used to evaluate differences between the CON group and the non-CON dosage groups. In all cases except for health observations, differences were deemed significant at Ptrt≤0.05 for these primary discrete variables. […]

[1] = 3.5 and 5.5 mg kg^−1 LUB groups, 56 d, Ptrt≤0.05
[2] = all LUB groups, 56 d, Ptrt≤0.05

Compound: CC(C)(Cc1ccc(Oc2ncccc2C#N)cc1)NC[C@H](O)COc1ccccc1-c1cccs1 [LUB, 2-{4-[2-({(2S)-2-Hydroxy-3-[2-(2-thienyl)phenoxy]propyl}amino)-2-methylpropyl]phenoxy}nicotinonitrile]
- Frequency of dark cutter carcasses (1.5 mg kg^−1 LUB group, 56 d): 0.6%
- Frequency of excessively trimmed carcasses (1.5 mg kg^−1 LUB group, 56 d): 1.4%
- YG 1, proportion of cattle graded (1.5 mg·kg^−1 DM LUB, 56 d): 5.4%
- YG 2, proportion of cattle graded (1.5 mg·kg^−1 DM LUB, 56 d): 25.8^x %
- YG 3, proportion of cattle graded (1.5 mg·kg^−1 DM LUB, 56 d): 49.0%
- YG 4, proportion of cattle graded (1.5 mg·kg^−1 DM LUB, 56 d): 17.1^y %
- YG 5, proportion of cattle graded (1.5 mg·kg^−1 DM LUB, 56 d): 2.7%
- KPH fat, difference from control (1.5 mg·kg^−1 vs. control, 56 d): 0.01%
- Marbling score, difference from control (1.5 mg·kg^−1 vs. control, 56 d): −13.0
- Marbling score, percent change from Control (1.5 mg·kg^−1 vs. control, 56 d): −2.8%
- Ribeye area, difference from control (1.5 mg·kg^−1 vs. control, 56 d): 3.3 cm^2
- Ribeye area, percent change from Control (1.5 mg·kg^−1 vs. control, 56 d): 3.5%
- carcass weight (HCW), difference from control (1.5 mg·kg^−1 vs. control, 56 d): 11.3 kg
- carcass weight (HCW), percent change from Control (1.5 mg·kg^−1 vs. control, 56 d): 2.8%
- Frequency of dark cutter carcasses (3.5 mg kg^−1 LUB group, 56 d): 0.3%
- Frequency of excessively trimmed carcasses (3.5 mg kg^−1 LUB group, 56 d): 1.8%
- YG 1, proportion of cattle graded (3.5 mg·kg^−1 DM LUB, 56 d): 5.5%
- YG 2, proportion of cattle graded (3.5 mg·kg^−1 DM LUB, 56 d): 31.5^y %
- YG 3, proportion of cattle graded (3.5 mg·kg^−1 DM LUB, 56 d): 44.0%
- YG 4, proportion of cattle graded (3.5 mg·kg^−1 DM LUB, 56 d): 17.3^y %
- YG 5, proportion of cattle graded (3.5 mg·kg^−1 DM LUB, 56 d): 1.7%
- KPH fat, difference from control (3.5 mg·kg^−1 vs. control, 56 d): 0.01%
- Marbling score, difference from control (3.5 mg·kg^−1 vs. control, 56 d): −23.0
- Marbling score, percent change from Control (3.5 mg·kg^−1 vs. control, 56 d): −4.9%
- Ribeye area, difference from control (3.5 mg·kg^−1 vs. control, 56 d): 5.4 cm^2
- Ribeye area, percent change from Control (3.5 mg·kg^−1 vs. control, 56 d): 5.8%
- carcass weight (HCW), difference from control (3.5 mg·kg^−1 vs. control, 56 d): 15.9 kg
- carcass weight (HCW), percent change from Control (3.5 mg·kg^−1 vs. control, 56 d): 3.9%
- Frequency of dark cutter carcasses (5.5 mg kg^−1 LUB group, 56 d): 0.1%
- Frequency of excessively trimmed carcasses (5.5 mg kg^−1 LUB group, 56 d): 1.4%
- YG 1, proportion of cattle graded (5.5 mg·kg^−1 DM LUB, 56 d): 6.2%
- YG 2, proportion of cattle graded (5.5 mg·kg^−1 DM LUB, 56 d): 31.6^y %
- YG 3, proportion of cattle graded (5.5 mg·kg^−1 DM LUB, 56 d): 44.2%
- YG 4, proportion of cattle graded (5.5 mg·kg^−1 DM LUB, 56 d): 16.0^y %
- YG 5, proportion of cattle graded (5.5 mg·kg^−1 DM LUB, 56 d): 2.0%
- KPH fat, difference from control (5.5 mg·kg^−1 vs. control, 56 d): 0.03%
- Marbling score, difference from control (5.5 mg·kg^−1 vs. control, 56 d): −27.0
- Marbling score, percent change from Control (5.5 mg·kg^−1 vs. control, 56 d): −5.7%
- Ribeye area, difference from control (5.5 mg·kg^−1 vs. control, 56 d): 5.7 cm^2
- Ribeye area, percent change from Control (5.5 mg·kg^−1 vs. control, 56 d): 6.1%
- carcass weight (HCW), difference from control (5.5 mg·kg^−1 vs. control, 56 d): 17.1 kg
- carcass weight (HCW), percent change from Control (5.5 mg·kg^−1 vs. control, 56 d): 4.2%
- Proportion of carcasses grading Select compared to CON [1]: increased
- Yield grade 2 compared to CON [1]: increased
- Adjusted fat thickness (LUB 1.5 mg·kg^−1 DM): 1.53 cm
- Dressing percentage (LUB 1.5 mg·kg^−1 DM): 61.8%
- KPH fat (LUB 1.5 mg·kg^−1 DM): 2.12%
- Ribeye Area (LUB 1.5 mg·kg^−1 DM): 97.0 cm^2
- Yield grade (LUB 1.5 mg·kg^−1 DM): 3.14
- carcass weight (HCW) (LUB 1.5 mg·kg^−1 DM): 418.3 kg
- Marbling score (LUB 1.5 mg·kg^−1 DM): 460
- Adjusted fat thickness (LUB 3.5 mg·kg^−1 DM): 1.48 cm
- Dressing percentage (LUB 3.5 mg·kg^−1 DM): 62.1%
- KPH fat (LUB 3.5 mg·kg^−1 DM): 2.12%
- Ribeye Area (LUB 3.5 mg·kg^−1 DM): 99.1 cm^2
- Yield grade (LUB 3.5 mg·kg^−1 DM): 3.02
- carcass weight (HCW) (LUB 3.5 mg·kg^−1 DM): 423.9 kg
- Marbling score (LUB 3.5 mg·kg^−1 DM): 450
- Adjusted fat thickness (LUB 5.5 mg·kg^−1 DM): 1.48 cm
- Dressing percentage (LUB 5.5 mg·kg^−1 DM): 62.3%
- KPH fat (LUB 5.5 mg·kg^−1 DM): 2.14%
- Ribeye Area (LUB 5.5 mg·kg^−1 DM): 99.4 cm^2
- Yield grade (LUB 5.5 mg·kg^−1 DM): 3.01
- carcass weight (HCW) (LUB 5.5 mg·kg^−1 DM): 425.1 kg
- Proportion of carcasses grading Upper 2/3 Choice compared to CON [2]: decreased
- Yield grade 4 compared to CON [2]: decreased
